From the supplement of paper PMC10307832

How the values were obtained:
Test in all cases: relative viability (nuclei count vs DMSO), 5 days (fraction); higher = more cells survive
NCI-H647 = system: NCI-H647
How it was run: (§1)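 Nuclei were stained with Hoechst during a one-step fixation (final 0.05% Triton X-100, 1% formaldehyde, 1 ug/ml Hoechst) carried out 5 days after dosing, then counted on 4× images. The cells, lung cancer lines in 1536-well plates, had been dosed by pin tool the day after seeding with one drug alone or a fixed anchor-drug dose plus five library-drug doses (not always all listed) in √10 steps. Relative viability is the nuclei count in treated wells divided by that in vehicle wells, and each value is the median of duplicate plates.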

EKVX = system: EKVX
How it was run: as §1

NCI-H1734 = system: NCI-H1734
How it was run: as §1

A-427 = system: A-427
How it was run: as §1

LU99A = system: LU99A
How it was run: as §1

EPLC-272H = system: EPLC-272H
How it was run: as §1

ChaGo-K-1 = system: ChaGo-K-1
How it was run: as §1

LK-2 = system: LK-2
How it was run: as §1

NCI-H460 = system: NCI-H460
How it was run: as §1

HCC-44 = system: HCC-44
How it was run: as §1

NCI-H2405 = system: NCI-H2405
How it was run: as §1

NCI-H1993 = system: NCI-H1993
How it was run: as §1

HARA = system: HARA
How it was run: as §1

NCI-H1650 = system: NCI-H1650
How it was run: as §1

NCI-H1755 = system: NCI-H1755
How it was run: as §1

SW 900 = system: SW 900
How it was run: as §1

COR-L 105 = system: COR-L 105
How it was run: as §1

EMC-BAC-2 = system: EMC-BAC-2
How it was run: as §1

NCI-H358 = system: NCI-H358
How it was run: as §1

RERF-LC-KJ = system: RERF-LC-KJ
How it was run: as §1

NCI-H522 = system: NCI-H522
How it was run: as §1

NCI-H1792 = system: NCI-H1792
How it was run: as §1

**Q.** For CN1CCN(CCOc2cc(OC3CCOCC3)c3c(Nc4c(Cl)ccc5c4OCO5)ncnc3c2)CC1 [Saracatinib] + CC(=O)c1c(C)c2cnc(Nc3ccc(N4CCNCC4)cn3)nc2n(C2CCCC2)c1=O [Palbociclib] (partner 0.5 µM), which relative viability (NCI-H647; first compound 0.02 µM) is on record?
**A.** 0.383

**Q.** What about the relative viability (NCI-H647; first compound 0.2 µM) of the same molecule?
**A.** 0.239

**Q.** What about the relative viability (NCI-H647; first compound 0.6325 µM) of the same molecule?
**A.** 0.347

**Q.** And the relative viability (NCI-H647; first compound 2 µM)?
**A.** 0.265

**Q.** What about the relative viability (EKVX; first compound 0.02 µM) of the same molecule?
**A.** 0.38

**Q.** What about the relative viability (EKVX; first compound 0.6325 µM) of the same molecule?
**A.** 0.306

**Q.** What about the relative viability (EKVX; first compound 2 µM) of the same molecule?
**A.** 0.146

**Q.** What about the relative viability (NCI-H1734; first compound 0.02 µM) of the same molecule?
**A.** 0.362

**Q.** And the relative viability (NCI-H1734; first compound 0.6325 µM)?
**A.** 0.372

**Q.** And the relative viability (NCI-H1734; first compound 2 µM)?
**A.** 0.329

**Q.** And the relative viability (A-427; first compound 0.02 µM)?
**A.** 0.531

**Q.** What about the relative viability (A-427; first compound 0.2 µM) of the same molecule?
**A.** 0.457

**Q.** And the relative viability (A-427; first compound 0.6325 µM)?
**A.** 0.525

**Q.** What about the relative viability (A-427; first compound 2 µM) of the same molecule?
**A.** 0.506

**Q.** What about the relative viability (LU99A; first compound 0.02 µM) of the same molecule?
**A.** 0.413

**Q.** What about the relative viability (LU99A; first compound 0.2 µM) of the same molecule?
**A.** 0.336

**Q.** And the relative viability (LU99A; first compound 0.6325 µM)?
**A.** 0.349

**Q.** What about the relative viability (LU99A; first compound 2 µM) of the same molecule?
**A.** 0.31

**Q.** And the relative viability (EPLC-272H; first compound 0.02 µM)?
**A.** 0.342

**Q.** And the relative viability (EPLC-272H; first compound 0.2 µM)?
**A.** 0.287

**Q.** What about the relative viability (EPLC-272H; first compound 0.6325 µM) of the same molecule?
**A.** 0.413

**Q.** And the relative viability (EPLC-272H; first compound 2 µM)?
**A.** 0.305

**Q.** And the relative viability (ChaGo-K-1; first compound 0.02 µM)?
**A.** 0.896

**Q.** What about the relative viability (ChaGo-K-1; first compound 0.2 µM) of the same molecule?
**A.** 0.533

**Q.** And the relative viability (ChaGo-K-1; first compound 0.6325 µM)?
**A.** 0.92

**Q.** What about the relative viability (ChaGo-K-1; first compound 2 µM) of the same molecule?
**A.** 0.865

**Q.** What about the relative viability (LK-2; first compound 0.02 µM) of the same molecule?
**A.** 0.496

**Q.** What about the relative viability (LK-2; first compound 0.2 µM) of the same molecule?
**A.** 0.405

**Q.** And the relative viability (LK-2; first compound 0.6325 µM)?
**A.** 0.528

**Q.** And the relative viability (LK-2; first compound 2 µM)?
**A.** 0.313

**Q.** What about the relative viability (NCI-H460; first compound 0.02 µM) of the same molecule?
**A.** 0.146

**Q.** What about the relative viability (NCI-H460; first compound 0.2 µM) of the same molecule?
**A.** 0.131

**Q.** And the relative viability (NCI-H460; first compound 0.6325 µM)?
**A.** 0.228

**Q.** What about the relative viability (NCI-H460; first compound 2 µM) of the same molecule?
**A.** 0.121

**Q.** And the relative viability (HCC-44; first compound 0.02 µM)?
**A.** 1.01

**Q.** And the relative viability (HCC-44; first compound 0.2 µM)?
**A.** 0.974

**Q.** And the relative viability (HCC-44; first compound 0.6325 µM)?
**A.** 0.979

**Q.** And the relative viability (HCC-44; first compound 2 µM)?
**A.** 0.938

**Q.** What about the relative viability (NCI-H2405; first compound 0.02 µM) of the same molecule?
**A.** 0.567

**Q.** What about the relative viability (NCI-H2405; first compound 0.2 µM) of the same molecule?
**A.** 0.45

**Q.** What about the relative viability (NCI-H2405; first compound 0.6325 µM) of the same molecule?
**A.** 0.44

**Q.** What about the relative viability (NCI-H2405; first compound 2 µM) of the same molecule?
**A.** 0.358

**Q.** What about the relative viability (NCI-H1993; first compound 0.02 µM) of the same molecule?
**A.** 0.65

**Q.** What about the relative viability (NCI-H1993; first compound 0.2 µM) of the same molecule?
**A.** 0.584

**Q.** What about the relative viability (NCI-H1993; first compound 0.6325 µM) of the same molecule?
**A.** 0.701

**Q.** What about the relative viability (NCI-H1993; first compound 2 µM) of the same molecule?
**A.** 0.523

**Q.** And the relative viability (HARA; first compound 0.02 µM)?
**A.** 0.234

**Q.** And the relative viability (HARA; first compound 0.2 µM)?
**A.** 0.208

**Q.** What about the relative viability (HARA; first compound 0.6325 µM) of the same molecule?
**A.** 0.269

**Q.** What about the relative viability (HARA; first compound 2 µM) of the same molecule?
**A.** 0.161

**Q.** And the relative viability (NCI-H1650; first compound 0.02 µM)?
**A.** 0.334

**Q.** What about the relative viability (NCI-H1650; first compound 0.2 µM) of the same molecule?
**A.** 0.28

**Q.** What about the relative viability (NCI-H1650; first compound 0.6325 µM) of the same molecule?
**A.** 0.267

**Q.** What about the relative viability (NCI-H1650; first compound 2 µM) of the same molecule?
**A.** 0.159

**Q.** What about the relative viability (NCI-H1755; first compound 0.02 µM) of the same molecule?
**A.** 0.448

**Q.** And the relative viability (NCI-H1755; first compound 0.2 µM)?
**A.** 0.395

**Q.** And the relative viability (NCI-H1755; first compound 0.6325 µM)?
**A.** 0.45

**Q.** What about the relative viability (NCI-H1755; first compound 2 µM) of the same molecule?
**A.** 0.435

**Q.** What about the relative viability (SW 900; first compound 0.02 µM) of the same molecule?
**A.** 0.548

**Q.** And the relative viability (SW 900; first compound 0.2 µM)?
**A.** 0.432

**Q.** What about the relative viability (SW 900; first compound 0.6325 µM) of the same molecule?
**A.** 0.383

**Q.** And the relative viability (SW 900; first compound 2 µM)?
**A.** 0.293

**Q.** And the relative viability (COR-L 105; first compound 0.02 µM)?
**A.** 0.384

**Q.** And the relative viability (COR-L 105; first compound 0.2 µM)?
**A.** 0.332

**Q.** What about the relative viability (COR-L 105; first compound 0.6325 µM) of the same molecule?
**A.** 0.38

**Q.** What about the relative viability (COR-L 105; first compound 2 µM) of the same molecule?
**A.** 0.321

**Q.** And the relative viability (EMC-BAC-2; first compound 0.02 µM)?
**A.** 0.507

**Q.** And the relative viability (EMC-BAC-2; first compound 0.2 µM)?
**A.** 0.483

**Q.** What about the relative viability (EMC-BAC-2; first compound 0.6325 µM) of the same molecule?
**A.** 0.517

**Q.** What about the relative viability (EMC-BAC-2; first compound 2 µM) of the same molecule?
**A.** 0.511

**Q.** What about the relative viability (NCI-H358; first compound 0.02 µM) of the same molecule?
**A.** 0.136

**Q.** What about the relative viability (NCI-H358; first compound 0.2 µM) of the same molecule?
**A.** 0.118

**Q.** What about the relative viability (NCI-H358; first compound 0.6325 µM) of the same molecule?
**A.** 0.127

**Q.** What about the relative viability (NCI-H358; first compound 2 µM) of the same molecule?
**A.** 0.0903

**Q.** And the relative viability (RERF-LC-KJ; first compound 0.02 µM)?
**A.** 1.05

**Q.** What about the relative viability (RERF-LC-KJ; first compound 0.2 µM) of the same molecule?
**A.** 1.05

**Q.** What about the relative viability (RERF-LC-KJ; first compound 0.6325 µM) of the same molecule?
**A.** 1.01

**Q.** What about the relative viability (RERF-LC-KJ; first compound 2 µM) of the same molecule?
**A.** 1.06

**Q.** And the relative viability (NCI-H522; first compound 0.02 µM)?
**A.** 0.914

**Q.** And the relative viability (NCI-H522; first compound 0.2 µM)?
**A.** 0.802

**Q.** And the relative viability (NCI-H522; first compound 0.6325 µM)?
**A.** 0.911

**Q.** What about the relative viability (NCI-H522; first compound 2 µM) of the same molecule?
**A.** 0.756

**Q.** What about the relative viability (NCI-H1792; first compound 0.02 µM) of the same molecule?
**A.** 0.567

**Q.** What about the relative viability (NCI-H1792; first compound 0.2 µM) of the same molecule?
**A.** 0.439

**Q.** What about the relative viability (NCI-H1792; first compound 0.6325 µM) of the same molecule?
**A.** 0.781

**Q.** What about the relative viability (NCI-H1792; first compound 2 µM) of the same molecule?
**A.** 0.55
